Calls of active or inactive are those of the source.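 The calls were made as follows: active = mean IC50 below 20 µM in each of the two panels, so potent in both; inactive = the rest.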
What follows are molecules tested against Neuropilin-1 (Homo sapiens) (UniProt O14786) (assay: blockers of CendR peptide binding to NRP-1 – biochemical, FP and AlphaScreen panel, dose response (AID 651650)). Conditions: NRP-1 b1b2 / RPARPAR peptide binding, FP or AlphaScreen; AlphaScreen, mean of runs.
Neuropilin-1 (Homo sapiens), sequence (O14786 whole entry, looked up): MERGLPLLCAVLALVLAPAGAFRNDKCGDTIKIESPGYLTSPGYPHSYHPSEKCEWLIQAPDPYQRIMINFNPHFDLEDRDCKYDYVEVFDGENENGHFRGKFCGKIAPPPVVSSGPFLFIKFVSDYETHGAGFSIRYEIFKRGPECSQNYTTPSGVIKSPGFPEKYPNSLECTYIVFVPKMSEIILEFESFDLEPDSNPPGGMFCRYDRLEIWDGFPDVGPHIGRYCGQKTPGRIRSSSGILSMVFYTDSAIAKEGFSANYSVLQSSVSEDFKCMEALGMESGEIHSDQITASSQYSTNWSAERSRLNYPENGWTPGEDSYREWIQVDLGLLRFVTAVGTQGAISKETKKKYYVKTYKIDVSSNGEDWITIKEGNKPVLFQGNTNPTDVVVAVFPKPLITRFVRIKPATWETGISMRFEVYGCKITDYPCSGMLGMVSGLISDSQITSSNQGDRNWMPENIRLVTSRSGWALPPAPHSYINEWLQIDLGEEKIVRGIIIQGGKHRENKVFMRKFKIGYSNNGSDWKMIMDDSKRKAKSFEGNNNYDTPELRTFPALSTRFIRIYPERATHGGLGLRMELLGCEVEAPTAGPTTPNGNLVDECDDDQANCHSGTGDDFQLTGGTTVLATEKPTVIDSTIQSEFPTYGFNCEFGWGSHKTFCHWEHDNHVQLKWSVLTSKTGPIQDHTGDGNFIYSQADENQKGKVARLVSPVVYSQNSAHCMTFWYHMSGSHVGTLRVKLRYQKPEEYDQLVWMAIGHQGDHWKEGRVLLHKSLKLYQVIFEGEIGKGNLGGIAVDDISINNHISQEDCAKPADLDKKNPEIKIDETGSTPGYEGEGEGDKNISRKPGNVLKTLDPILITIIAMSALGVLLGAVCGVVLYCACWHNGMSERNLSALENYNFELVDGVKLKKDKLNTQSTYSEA

Compound | IC50
CC(C)C[C@@H](COc1ccccc1)N1CCN(CCc2ccccc2)CCC1=O | > 100 µM (inactive)
CCCc1c(O)c2ccccc2[nH]c1=O | > 100 µM (inactive)
COc1ccc(Nc2nc(-c3cccnc3)nc3ccccc23)cn1 | inactive
c1ccc2c(CNc3ccc(CNc4ncn[nH]4)cc3)cccc2c1 | > 100 µM (inactive)
COc1ccccc1N1CCN(C(=O)C2c3ccccc3Oc3ccccc32)CC1 | > 100 µM (inactive)
COC/C=C/C1=CC2=CC(=O)C(C)(OC(=O)c3cnc4ccccc4n3)C(=O)C2=CN1Cc1ccc(OC)cc1 (configuration not stated) | inactive
O=C(Nc1ccc(F)cc1)c1cc(S(=O)(=O)Nc2ccc(F)cc2)cs1 | > 100 µM (inactive)
C=C1CCN([C@@H](CC(C)C)C(=O)NCCC(C)C)S(=O)(=O)c2ccccc21 | > 100 µM (inactive)
C=CCC1(CC=C)CCCN1C(=O)c1cc(COc2cccc(OC)c2)on1 | > 100 µM (inactive)
O=C(CSC1CN(C(c2ccccc2)c2ccccc2)C1)N/N=C/c1ccccc1 | 5.56 µM
CSc1cccc(CN2CCN(Cc3ccccc3)C(CCO)C2)c1 (configuration not stated) | > 100 µM (inactive)
NS(=O)(=O)c1cccnc1Nc1cccc(Cl)c1Cl | > 100 µM (inactive)
OCCC1CCCCN1CC(O)COCc1ccc(Cl)cc1 (configuration not stated) | > 100 µM (inactive)
COC(=O)C1N[C@@H]([C@@H](NC(=O)COc2ccccc2)C(=O)NCc2ccccc2)SC1(C)C (some centres not stated) | > 100 µM (inactive)
COc1ccc(C(O)c2nc(-c3ccc4ccccc4c3)cs2)cc1 (configuration not stated) | > 100 µM (inactive)
CCOC(=O)C1=C(O)C(=O)N(c2ccccc2)C1c1cccc([N+](=O)[O-])c1 (configuration not stated) | > 100 µM (inactive)
CN1CCC(=NNC(=O)c2ccco2)CC1 | > 100 µM (inactive)
Cn1c(=O)c2[nH]c(COc3ccccc3)nc2n(C)c1=O | > 100 µM (inactive)
O=S1(=O)CCOC[C@H](Cc2ccccc2)N1Cc1ccccc1F | > 100 µM (inactive)
COc1ccccc1C(=O)NC(=O)CSc1nncn1C | > 100 µM (inactive)
COc1ccc(N(CC(=O)NCc2ccco2)C(=O)CCC(=O)Nc2ccccn2)cc1 | > 100 µM (inactive)
CC(=O)Nc1cccc(-c2csc(NCc3ccccc3)n2)c1 | > 100 µM (inactive)
COCCNC(=O)c1cc(-c2ccccc2)nn1CC1CC(c2cccc([N+](=O)[O-])c2)=NO1 (configuration not stated) | > 100 µM (inactive)

Compound | IC50
O=S(=O)(c1ccccc1)c1nc(-c2ccc(F)cc2)oc1N1CCOCC1 | > 100 µM (inactive)
CCC1=C(OC(=O)N(CC)CC)N2C(=O)OC(=NCC(=O)OC)[C@]2(C)[C@H]2C1=CC[C@H]1C(=O)N(CC)C(=O)[C@H]12 | > 100 µM (inactive)
Cc1ccc(Cn2nnnc2CN2CCC(n3nnc4ccccc43)CC2)cc1 | > 100 µM (inactive)
Cc1cnccc1CNC(=O)CC1C(=O)NCCN1CC(C)(C)C (configuration not stated) | > 100 µM (inactive)
O=C(c1ccc(-c2cccc(C(F)(F)F)c2)o1)N1CCCC(C(F)(F)F)C1 (configuration not stated) | > 100 µM (inactive)
O=C(CSc1nnc(Cc2ccccc2)n1Cc1ccccc1)NCc1ccco1 | > 100 µM (inactive)
c1ccc2c(c1)CCCN2Cc1nnnn1CC1CCCO1 (configuration not stated) | inactive
CCC1Nc2ncnc(N3CCCCC3)c2N(Cc2ccc(C)cc2)C1=O (configuration not stated) | > 100 µM (inactive)
O=C(O/N=C1/CCSc2ccccc21)c1ccccc1 | > 100 µM (inactive)
O=C(COC(=O)c1ccccn1)c1ccc([N+](=O)[O-])cc1 | > 100 µM (inactive)
CC(=O)c1ccc(OCC(=O)Nc2nnc(C3CC3)s2)cc1 | > 100 µM (inactive)
Cc1ccccc1-c1cnc(C(O)c2ccc(F)c(F)c2)[nH]1 (configuration not stated) | > 100 µM (inactive)
C=C[C@]12CC[C@H](OC(C)=O)CC1=CCC1C2CC[C@@]2(C)C1CCC21OCCO1 (some centres not stated) | > 100 µM (inactive)
CCC1=C(OC(=O)N(CC)CC)N2C(=O)OC(=NCC(=O)OC)[C@]2(Cc2ccccc2)[C@H]2C1=CC[C@H]1C(=O)N(CC(=O)OC)C(=O)[C@H]12 | inactive
CCc1ccc(OC(=O)CN2C(=O)c3ccccc3C2=O)cc1 | inactive
CCOC(=O)c1cnc(-c2ccccc2)nc1Oc1ccc(OC)cc1 | 10.4 µM
CC(=O)C(=Cc1ccc(Cl)cc1)C(=O)c1ccccc1 | > 100 µM (inactive)
CSc1ncccc1C(=O)OCC(=O)NC1CCCCC1 | > 100 µM (inactive)
CCCCOc1ccc(S(=O)(=O)N2CCN(C)CC2)cc1 | inactive
Cn1c(SCc2nc3ccccc3s2)nnc1-c1cccs1 | inactive
CC(Nc1ccc2ccccc2c1)C(=O)N/N=C/c1ccncc1 (configuration not stated) | > 100 µM (inactive)
Cc1cn([C@H]2C[C@H](O)[C@@H](CCC(=O)NCCc3ccc4ccccc4c3)O2)c(=O)[nH]c1=O | > 100 µM (inactive)

Same assay, conditions: NRP-1 b1b2 / RPARPAR peptide binding, FP or AlphaScreen; AlphaScreen, run 1; individual panel run IC50

Compound | IC50 [µM]
CC(C)C[C@@H](COc1ccccc1)N1CCN(CCc2ccccc2)CCC1=O | > 100
CCCc1c(O)c2ccccc2[nH]c1=O | > 100
COc1ccc(Nc2nc(-c3cccnc3)nc3ccccc23)cn1 | 54.7
c1ccc2c(CNc3ccc(CNc4ncn[nH]4)cc3)cccc2c1 | > 100
COc1ccccc1N1CCN(C(=O)C2c3ccccc3Oc3ccccc32)CC1 | > 100
COC/C=C/C1=CC2=CC(=O)C(C)(OC(=O)c3cnc4ccccc4n3)C(=O)C2=CN1Cc1ccc(OC)cc1 (configuration not stated) | 46.4
O=C(Nc1ccc(F)cc1)c1cc(S(=O)(=O)Nc2ccc(F)cc2)cs1 | > 100
C=C1CCN([C@@H](CC(C)C)C(=O)NCCC(C)C)S(=O)(=O)c2ccccc21 | > 100
C=CCC1(CC=C)CCCN1C(=O)c1cc(COc2cccc(OC)c2)on1 | > 100
O=C(CSC1CN(C(c2ccccc2)c2ccccc2)C1)N/N=C/c1ccccc1 | 5.56
CSc1cccc(CN2CCN(Cc3ccccc3)C(CCO)C2)c1 (configuration not stated) | > 100
NS(=O)(=O)c1cccnc1Nc1cccc(Cl)c1Cl | > 100
OCCC1CCCCN1CC(O)COCc1ccc(Cl)cc1 (configuration not stated) | > 100
COC(=O)C1N[C@@H]([C@@H](NC(=O)COc2ccccc2)C(=O)NCc2ccccc2)SC1(C)C (some centres not stated) | > 100
COc1ccc(C(O)c2nc(-c3ccc4ccccc4c3)cs2)cc1 (configuration not stated) | > 100
CCOC(=O)C1=C(O)C(=O)N(c2ccccc2)C1c1cccc([N+](=O)[O-])c1 (configuration not stated) | > 100
CN1CCC(=NNC(=O)c2ccco2)CC1 | > 100
Cn1c(=O)c2[nH]c(COc3ccccc3)nc2n(C)c1=O | > 100
O=S1(=O)CCOC[C@H](Cc2ccccc2)N1Cc1ccccc1F | > 100
COc1ccccc1C(=O)NC(=O)CSc1nncn1C | > 100
COc1ccc(N(CC(=O)NCc2ccco2)C(=O)CCC(=O)Nc2ccccn2)cc1 | > 100
CC(=O)Nc1cccc(-c2csc(NCc3ccccc3)n2)c1 | > 100
COCCNC(=O)c1cc(-c2ccccc2)nn1CC1CC(c2cccc([N+](=O)[O-])c2)=NO1 (configuration not stated) | > 100

Compound | IC50 [µM]
O=S(=O)(c1ccccc1)c1nc(-c2ccc(F)cc2)oc1N1CCOCC1 | > 100
CCC1=C(OC(=O)N(CC)CC)N2C(=O)OC(=NCC(=O)OC)[C@]2(C)[C@H]2C1=CC[C@H]1C(=O)N(CC)C(=O)[C@H]12 | > 100
Cc1ccc(Cn2nnnc2CN2CCC(n3nnc4ccccc43)CC2)cc1 | > 100
Cc1cnccc1CNC(=O)CC1C(=O)NCCN1CC(C)(C)C (configuration not stated) | > 100
O=C(c1ccc(-c2cccc(C(F)(F)F)c2)o1)N1CCCC(C(F)(F)F)C1 (configuration not stated) | > 100
O=C(CSc1nnc(Cc2ccccc2)n1Cc1ccccc1)NCc1ccco1 | > 100
c1ccc2c(c1)CCCN2Cc1nnnn1CC1CCCO1 (configuration not stated) | 25.8
CCC1Nc2ncnc(N3CCCCC3)c2N(Cc2ccc(C)cc2)C1=O (configuration not stated) | > 100
O=C(O/N=C1/CCSc2ccccc21)c1ccccc1 | > 100
O=C(COC(=O)c1ccccn1)c1ccc([N+](=O)[O-])cc1 | > 100
CC(=O)c1ccc(OCC(=O)Nc2nnc(C3CC3)s2)cc1 | > 100
Cc1ccccc1-c1cnc(C(O)c2ccc(F)c(F)c2)[nH]1 (configuration not stated) | > 100
C=C[C@]12CC[C@H](OC(C)=O)CC1=CCC1C2CC[C@@]2(C)C1CCC21OCCO1 (some centres not stated) | > 100
CCC1=C(OC(=O)N(CC)CC)N2C(=O)OC(=NCC(=O)OC)[C@]2(Cc2ccccc2)[C@H]2C1=CC[C@H]1C(=O)N(CC(=O)OC)C(=O)[C@H]12 | 64.8
CCc1ccc(OC(=O)CN2C(=O)c3ccccc3C2=O)cc1 | 32
CCOC(=O)c1cnc(-c2ccccc2)nc1Oc1ccc(OC)cc1 | 10.4
CC(=O)C(=Cc1ccc(Cl)cc1)C(=O)c1ccccc1 | > 100
CSc1ncccc1C(=O)OCC(=O)NC1CCCCC1 | > 100
CCCCOc1ccc(S(=O)(=O)N2CCN(C)CC2)cc1 | 76.4
Cn1c(SCc2nc3ccccc3s2)nnc1-c1cccs1 | 46.6
CC(Nc1ccc2ccccc2c1)C(=O)N/N=C/c1ccncc1 (configuration not stated) | > 100
Cc1cn([C@H]2C[C@H](O)[C@@H](CCC(=O)NCCc3ccc4ccccc4c3)O2)c(=O)[nH]c1=O | > 100

Same assay, conditions: NRP-1 b1b2 / RPARPAR peptide binding, FP or AlphaScreen; FP, mean of runs

Compound | IC50
CC(C)C[C@@H](COc1ccccc1)N1CCN(CCc2ccccc2)CCC1=O | > 95 µM (inactive)
CCCc1c(O)c2ccccc2[nH]c1=O | > 95 µM (inactive)
COc1ccc(Nc2nc(-c3cccnc3)nc3ccccc23)cn1 | > 95 µM (inactive)
c1ccc2c(CNc3ccc(CNc4ncn[nH]4)cc3)cccc2c1 | > 95 µM (inactive)
COc1ccccc1N1CCN(C(=O)C2c3ccccc3Oc3ccccc32)CC1 | > 95 µM (inactive)
COC/C=C/C1=CC2=CC(=O)C(C)(OC(=O)c3cnc4ccccc4n3)C(=O)C2=CN1Cc1ccc(OC)cc1 (configuration not stated) | > 95 µM (inactive)
O=C(Nc1ccc(F)cc1)c1cc(S(=O)(=O)Nc2ccc(F)cc2)cs1 | > 95 µM (inactive)
C=C1CCN([C@@H](CC(C)C)C(=O)NCCC(C)C)S(=O)(=O)c2ccccc21 | > 95 µM (inactive)
C=CCC1(CC=C)CCCN1C(=O)c1cc(COc2cccc(OC)c2)on1 | > 95 µM (inactive)
O=C(CSC1CN(C(c2ccccc2)c2ccccc2)C1)N/N=C/c1ccccc1 | > 95 µM (inactive)
CSc1cccc(CN2CCN(Cc3ccccc3)C(CCO)C2)c1 (configuration not stated) | > 95 µM (inactive)
NS(=O)(=O)c1cccnc1Nc1cccc(Cl)c1Cl | > 95 µM (inactive)
OCCC1CCCCN1CC(O)COCc1ccc(Cl)cc1 (configuration not stated) | > 95 µM (inactive)
COC(=O)C1N[C@@H]([C@@H](NC(=O)COc2ccccc2)C(=O)NCc2ccccc2)SC1(C)C (some centres not stated) | > 95 µM (inactive)
COc1ccc(C(O)c2nc(-c3ccc4ccccc4c3)cs2)cc1 (configuration not stated) | > 95 µM (inactive)
CCOC(=O)C1=C(O)C(=O)N(c2ccccc2)C1c1cccc([N+](=O)[O-])c1 (configuration not stated) | > 95 µM (inactive)
CN1CCC(=NNC(=O)c2ccco2)CC1 | > 95 µM (inactive)
Cn1c(=O)c2[nH]c(COc3ccccc3)nc2n(C)c1=O | > 95 µM (inactive)
O=S1(=O)CCOC[C@H](Cc2ccccc2)N1Cc1ccccc1F | > 95 µM (inactive)
COc1ccccc1C(=O)NC(=O)CSc1nncn1C | > 95 µM (inactive)
COc1ccc(N(CC(=O)NCc2ccco2)C(=O)CCC(=O)Nc2ccccn2)cc1 | > 95 µM (inactive)
CC(=O)Nc1cccc(-c2csc(NCc3ccccc3)n2)c1 | > 95 µM (inactive)

Source: PubChem BioAssay AID651650 (Sanford-Burnham Center for Chemical Genomics, 2012)
